In patent publication US10364256B2 (GlaxoSmithKline Intellectual Property Development Limited, priority 2015, dated 2019):
Read-outs that look alike come from different tables or passages of the source.

Assays:
[1] = test system: NQO1 specific enzyme activity in BEAS-2B cells (marker for NRF2 activation); assay: BEAS-2B NQO1 MTT Assay; format: cell-based; details: compound incubated 48 hours, read-out: EC50 (NQO1 specific enzyme activity induction)
In short: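 BEAS-2B cells treated with compound for 48 h at 37 °C, then lysed; NQO1 activity in lysates measured kinetically by MTT reduction at A570 over 30 min. pEC50 from 3-parameter fit of ΔOD/min versus log concentration; lysate also taken for Cell Titer Glo.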

[2] = biological target: T1, full length Keap1 protein / full length NRF2 protein (Homo sapiens, UniProt Q14145); assay: NRF2-Keap1 TR-FRET Low Protein Assay; format: binding; details: 1.25 nM Keap1 FlagHis and 2.5 nM biotin-NRF2 added
T1 construct: full length NRF2 protein and full length Keap1 protein (Keap1 exists a dimer) are used; His
In short: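 Flag-tagged full-length Keap1 was preincubated with compound (3-fold series) for 2.25 h at 37 °C in Tris pH 8.0/MgCl2/NaCl/BSA/DTT/CHAPS. Biotin-Avi-NRF2 (added at 2.5 nM) was then bound for 1.25 h at 4 °C. Eu-streptavidin/anti-Flag-APC TR-FRET (665/615 nm) was read after 1 h at RT, and pIC50 came from a four-parameter fit.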

T1 sequence (Q14145 whole entry): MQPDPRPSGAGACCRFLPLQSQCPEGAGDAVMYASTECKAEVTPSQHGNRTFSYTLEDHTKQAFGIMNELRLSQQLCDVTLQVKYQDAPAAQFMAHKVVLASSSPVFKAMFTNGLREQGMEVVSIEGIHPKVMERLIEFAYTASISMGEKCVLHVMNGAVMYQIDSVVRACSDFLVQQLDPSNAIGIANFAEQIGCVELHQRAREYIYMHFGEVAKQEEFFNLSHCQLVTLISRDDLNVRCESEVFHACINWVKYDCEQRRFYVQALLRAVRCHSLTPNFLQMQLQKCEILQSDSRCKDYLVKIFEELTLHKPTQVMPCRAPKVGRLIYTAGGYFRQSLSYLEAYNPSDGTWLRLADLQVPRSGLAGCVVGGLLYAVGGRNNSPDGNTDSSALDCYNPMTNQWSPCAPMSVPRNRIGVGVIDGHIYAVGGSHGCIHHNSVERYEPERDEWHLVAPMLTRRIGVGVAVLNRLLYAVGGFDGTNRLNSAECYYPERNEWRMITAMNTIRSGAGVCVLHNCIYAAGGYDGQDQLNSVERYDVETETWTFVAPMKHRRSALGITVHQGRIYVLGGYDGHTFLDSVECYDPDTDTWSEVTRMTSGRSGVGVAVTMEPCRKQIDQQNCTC

Row | Compound | IC50 [2] | EC50 ([1]; Homo sapiens) | EC50 [1]
1 | C[C@@H]1CN(Cc2cccc(-c3cccc(-n4ncc(C(=O)O)c4[C@@H]4C[C@H]4c4cn(C)nn4)c3)c2)Cc2ccccc2O1 [Example 253] | < 10 nM | 100 to 1000 nM | 
2 | 1-(3′-((2-chlorocyclohexyl)methoxy)-[1,1′-biphenyl]-3-yl)-5-((1,2-trans)-2-(1-methyl-1H-1,2,3-triazol-4-yl)cyclopropyl)-1H-pyrazole-4-carboxylic acid [Example 186] | 10 to 100 nM |  | 10 to 100 nM
3 | CC1(C)CCc2cnn(-c3cccc(-c4cccc(-n5ncc(C(=O)O)c5C(F)(F)F)c4)c3)c21 [Example 250, 1-(3′-(6,6-Dimethyl-5,6-dihydrocyclopenta[c]pyrazol-1(4H)-yl)-[1,1′-biphenyl]-3-yl)-5-(trifluoromethyl)-1H-pyrazole-4-carboxylic Acid] | 100 to 1000 nM | 100 to 1000 nM | 
4 | CC(C)Oc1cccc(-c2cccc(-n3ncc(C(=O)O)c3C3CC3c3cn(C)nn3)c2)c1 (stereo not shown) [Example 59, 1-(3′-Isopropoxy-[1,1′-biphenyl]-3-yl)-5-(2-(1-methyl-1H-1,2,3-triazol-4-yl)cyclopropyl)-1H-pyrazole-4-carboxylic Acid] | 100 to 1000 nM | 1000 to 10000 nM | 
5 | O=C(O)c1cnn(-c2cccc(-c3cccc(C(=O)N(CC4CC4)CC4CC4)c3F)c2)c1C1CC1 [Example 8, 1-(3-{3-[Bis(cyclopropylmethyl)carbamoyl]-2-fluorophenyl}phenyl)-5-cyclopropyl-1H-pyrazole-4-carboxylic Acid] | 10 to 100 nM | 100 to 1000 nM | 
6 | Cn1cc([C@@H]2C[C@H]2c2c(C(=O)O)cnn2-c2cccc(-c3cccc(CN4Cc5ccccc5OC(C)(C)C4)c3)c2)nn1 (racemic) [Example 254, 1-(3′-((2,2-Dimethyl-2,3-dihydrobenzo[f][1,4]oxazepin-4(5H)-yl)methyl)-[1,1′-biphenyl]-3-yl)-5-(trans-2-(1-methyl-1H-1,2,3-triazol-4-yl)cyclopropyl)-1H-pyrazole-4-carboxylic Acid] | 10 to 100 nM | 100 to 1000 nM | 
7 | O=C(O)c1cnn(-c2cccc(-c3cccc(C(=O)N4CCCCC4C4CCCC4)c3F)c2)c1C1CC1 (stereo not shown) [Example 33, 1-{3-[3-(2-Cyclopentylpiperidine-1-carbonyl)-2-fluorophenyl]phenyl}-5-cyclopropyl-1H-pyrazole-4-carboxylic Acid] | 10 to 100 nM | 100 to 1000 nM | 
8 | Cn1cc([C@@H]2C[C@H]2c2c(C(=O)O)cnn2-c2cccc(-c3cccc(-n4ncc5c4C(C)(C)CC5)c3)n2)nn1 (racemic) [Example 251, 1-(6-(3-(6,6-Dimethyl-5,6-dihydrocyclopenta[c]pyrazol-1(4H)-yl)phenyl)pyridin-2-yl)-5-(trans-2-(1-methyl-1H-1,2,3-triazol-4-yl)cyclopropyl)-1H-pyrazole-4-carboxylic Acid] | < 10 nM | 100 to 1000 nM | 
9 | CC1CCC(C)N(C(=O)c2cccc(-c3cccc(-n4ncc(C(=O)O)c4C4CC4)c3)c2F)C1 (stereo not shown) [Example 30, 5-Cyclopropyl-1-{3-[3-(2,5-dimethylpiperidine-1-carbonyl)-2-fluorophenyl]phenyl}-1H-pyrazole-4-carboxylic Acid] | 100 to 1000 nM | 100 to 1000 nM | 
10 | CCC1Cc2ccccc2CN(Cc2cccc(-c3cccc(-n4ncc(C(=O)O)c4[C@@H]4C[C@H]4c4cn(C)nn4)c3)c2)C1 (relative stereo) [Example 252, 1-(3′-((4-Ethyl-4,5-dihydro-1H-benzo[c]azepin-2(3H)-yl)methyl)-[1,1′-biphenyl]-3-yl)-5-(trans-2-(1-methyl-1H-1,2,3-triazol-4-yl)cyclopropyl)-1H-pyrazole-4-carboxylic Acid] | 10 to 100 nM | 100 to 1000 nM | 
11 | O=C(O)c1cnn(-c2cccc(-c3cccc(C(=O)N4CCCC5CCCCC54)c3F)c2)c1C1CC1 (stereo not shown) [Example 31, 5-Cyclopropyl-1-{3-[3-(decahydroquinoline-1-carbonyl)-2-fluorophenyl]phenyl}-1H-pyrazole-4-carboxylic Acid] | 10 to 100 nM | 100 to 1000 nM | 
12 | CC(Oc1cccc(-c2cccc(-n3ncc(C(=O)O)c3[C@@H]3C[C@H]3c3cn(C)nn3)n2)c1)C1CCCCC1 (relative stereo) [Example 249, 1-(6-(3-(1-Cyclohexylethoxy)phenyl)pyridin-2-yl)-5-(trans-2-(1-methyl-1H-1,2,3-triazol-4-yl)cyclopropyl)-1H-pyrazole-4-carboxylic Acid] | < 10 nM | 1 to 10 nM | 
13 | O=C(O)c1cnn(-c2cccc(-c3cccc(C(=O)N4CCCC5(CCCC5)C4)c3F)c2)c1C1CC1 [Example 35, 1-[3-(3-{7-Azaspiro[4.5]decane-7-carbonyl}-2-fluorophenyl)phenyl]-5-cyclopropyl-1H-pyrazole-4-carboxylic Acid] | 10 to 100 nM | 100 to 1000 nM | 

The next lines start with results.

Row | IC50 [2] | Compound | EC50 ([1]; Homo sapiens) | EC50 [1]
14 | < 10 nM | CC(C)CN(C)C(=O)c1cccc(-c2cccc(-n3ncc(C(=O)O)c3[C@@H]3C[C@H]3c3cn(C)nn3)c2)c1F (racemic) [Example 266, 1-(2′-Fluoro-3′(isobutyl(methyl)carbamoyl)-[1,1′-biphenyl]-3-yl)-5-(trans-2-(1-methyl-1H-1,2,3-triazol-4-yl)cyclopropyl)-1H-pyrazole-4-carboxylic Acid] | 100 to 1000 nM | 
15 | 10 to 100 nM | CCCC1CCCCN1C(=O)c1cccc(-c2cccc(-n3ncc(C(=O)O)c3C3CC3)c2)c1F (stereo in doubt) [Example 54d, 5-Cyclopropyl-1-{3-[2-fluoro-3-((2R)-2-propylpiperidine-1-carbonyl)phenyl]phenyl}-1H-pyrazole-4-carboxylic Acid] | 100 to 1000 nM | 
16 | < 10 nM | CCOC[C@H]1CCCN1C(=O)c1cccc(-c2cccc(-n3ncc(C(=O)O)c3[C@@H]3C[C@H]3c3cn(C)nn3)c2)c1F [Example 268] | 100 to 1000 nM | 
17 | < 10 nM | CC1CC(C)CN(C(=O)c2cccc(-c3cccc(-n4ncc(C(=O)O)c4[C@@H]4C[C@H]4c4cn(C)nn4)c3)c2F)C1 (mixture of isomers) [Example 263, 1-(3′-(3,5-Dimethylpiperidine-1-carbonyl)-2′-fluoro-[1,1′-biphenyl]-3-yl)-5-(2-(1-methyl-1H-1,2,3-triazol-4-yl)cyclopropyl)-1H-pyrazole-4-carboxylic Acid] | 100 to 1000 nM | 
18 | < 10 nM | Cn1cc([C@H]2C[C@@H]2c2c(C(=O)O)cnn2-c2cccc(-c3cccc(C(=O)N4CCCCC4)c3F)c2)nn1 (racemic) [Example 258, 1-(2′-Fluoro-3′-(piperidine-1-carbonyl)-[1,1′-biphenyl]-3-yl)-5-(trans-2-(1-methyl-1H-1,2,3-triazol-4-yl)cyclopropyl)-1H-pyrazole-4-carboxylic Acid] | 100 to 1000 nM | 
19 | 100 to 1000 nM | CCC[C@@H]1CCCCN1C(=O)c1cccc(-c2cccc(-n3ncc(C(=O)O)c3C3CC3)c2)c1F [Example 54e, 5-Cyclopropyl-1-{3-[2-fluoro-3-((2-S)-2-propylpiperidine-1-carbonyl)phenyl]phenyl}-1H-pyrazole-4-carboxylic Acid] | 100 to 1000 nM | 
20 | < 10 nM | Cn1cc([C@H]2C[C@@H]2c2c(C(=O)O)cnn2-c2cccc(-c3cccc(C(=O)N4CCCCCC4)c3F)c2)nn1 (racemic) [Example 260, 1-(2′-Fluoro-3′-(azepane-1-carbonyl)-[1,1′-biphenyl]-3-yl)-5-(trans-2-(1-methyl-1H-1,2,3-triazol-4-yl)cyclopropyl)-1H-pyrazole-4-carboxylic Acid] | 100 to 1000 nM | 
21 | 10 to 100 nM | CCC[C@@H]1CCCCN1C(=O)c1cccc(-c2cccc(-n3ncc(C(=O)O)c3CCc3cn(C)nn3)c2)c1F [Example 55, (R)-1-(2′-Fluoro-3′-(2-propylpiperidine-1-carbonyl)-[1,1′-biphenyl]-3-yl)-5-(2-(1-methyl-1H-1,2,3-triazol-4-yl)ethyl)-1H-pyrazole-4-carboxylic Acid] | 1000 to 10000 nM | 
22 | 10 to 100 nM | O=C(O)c1cnn(-c2cccc(-c3cccc(C(=O)N4CCCCC4CCC(F)(F)F)c3F)c2)c1C1CC1 (stereo not shown) [Example 38, 5-Cyclopropyl-1-(3-{2-fluoro-3-[2-(3,3,3-trifluoropropyl)piperidine-1-carbonyl]phenyl}phenyl)-1H-pyrazole-4-carboxylic Acid] | 100 to 1000 nM | 
23 | < 10 nM | Cn1cc([C@H]2C[C@@H]2c2c(C(=O)O)cnn2-c2cccc(-c3cccc(C(=O)N4CCCC(C)(C)C4)c3F)c2)nn1 (racemic) [Example 259, 1-(2′-Fluoro-3′-(3,3-dimethylpiperidine-1-carbonyl)-[1,1′-biphenyl]-3-yl)-5-(trans-2-(1-methyl-1H-1,2,3-triazol-4-yl)cyclopropyl)-1H-pyrazole-4-carboxylic Acid] | 100 to 1000 nM | 
24 | < 10 nM | C[C@@H]1CCC[C@H](C)N1C(=O)c1cccc(-c2cccc(-n3ncc(C(=O)O)c3[C@@H]3C[C@H]3c3cn(C)nn3)c2)c1F (single isomer, unassigned) [Example 262] | 10 to 100 nM | 
25 | 10 to 100 nM | CC(C)CC1CCCCN1C(=O)c1cccc(-c2cccc(-n3ncc(C(=O)O)c3C3CC3)c2)c1F (stereo not shown) [Example 28, 5-Cyclopropyl-1-(3-{2-fluoro-3-[2-(2-methylpropyl)piperidine-1-carbonyl]phenyl}phenyl)-1H-pyrazole-4-carboxylic Acid] | 100 to 1000 nM | 
26 | < 10 nM | CCOC[C@@H]1CCCN1C(=O)c1cccc(-c2cccc(-n3ncc(C(=O)O)c3[C@@H]3C[C@H]3c3cn(C)nn3)c2)c1F [Example 267] | 100 to 1000 nM | 
